According to ChEMBL document CHEMBL1671847, “Hybrid dual aromatase-steroid sulfatase inhibitors with exquisite picomolar inhibitory activity” (ACS Med Chem Lett, 2011):

Target: T1, Aromatase (Homo sapiens, UniProt P11511)
T1 sequence (P11511 whole entry): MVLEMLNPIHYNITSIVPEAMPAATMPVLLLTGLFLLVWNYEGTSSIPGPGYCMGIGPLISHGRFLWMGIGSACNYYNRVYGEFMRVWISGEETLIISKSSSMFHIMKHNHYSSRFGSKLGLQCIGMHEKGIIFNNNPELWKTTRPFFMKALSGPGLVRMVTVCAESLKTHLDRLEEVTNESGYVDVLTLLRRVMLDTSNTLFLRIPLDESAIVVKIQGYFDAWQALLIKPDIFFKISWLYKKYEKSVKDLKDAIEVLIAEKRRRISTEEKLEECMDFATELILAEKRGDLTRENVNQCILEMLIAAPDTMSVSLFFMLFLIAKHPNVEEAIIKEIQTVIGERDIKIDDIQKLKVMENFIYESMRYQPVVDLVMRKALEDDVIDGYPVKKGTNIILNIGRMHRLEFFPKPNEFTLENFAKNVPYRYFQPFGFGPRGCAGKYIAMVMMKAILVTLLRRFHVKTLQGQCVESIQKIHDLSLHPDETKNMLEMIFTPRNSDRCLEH
Assay: Inhibition of aromatase in human JEG-3 cells using [1beta-3H]androstenedione after 1 hr by scintillation spectrometry
Type: cell-based

SMILES: N#Cc1ccc(N(Cc2ccc(OS(N)(=O)=O)cc2)n2cnnc2)cc1-c1ccccc1
- IC50: 0.21 nM
